Results from patent US20060069132A1, “Azolecarboxamide herbicides” (priority 2004, published 2006).

Key:
velvetleaf = assay: Test B pre-/postemergence herbicide test; assay type: in vivo, Abutilon theophrasti; conditions: for Velvetleaf plant response rating: postemergence
Procedure, shortened: (§1)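 Test chemicals in a non-phytotoxic solvent mixture with surfactant were applied preemergence to seeded species and postemergence to plants 2-18 cm tall (1- to 4-leaf stage); rice and barnyardgrass were also tested in a flooded paddy at the 2-leaf stage. Visual rating versus controls after 13-15 days in greenhouse, scale 0 (no effect) to 100 (complete control).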

corn = assay: Test B pre-/postemergence herbicide test; assay type: in vivo, Zea mays; conditions: for Corn plant response rating (0 to 100 scale) / Plant response rating, Corn: 0 = no effect, 100 = complete control, preemergence; for Corn plant response rating: postemergence
Procedure, shortened: as §1

giant foxtail = assay: Test B pre-/postemergence herbicide test; assay type: in vivo, Setaria faberi; conditions: for Foxtail, Giant plant response rating (0 to 100 scale) / Plant response rating, Foxtail, Giant: 0 = no effect, 100 = complete control, preemergence; for Foxtail, Giant plant response rating: postemergence
Procedure, shortened: as §1

blackgrass = assay: Test B postemergence herbicide test; assay type: in vivo, Alopecurus myosuroides; conditions: postemergence, visual rating, scale 0 (no effect) to 100 (complete control)
Procedure, shortened: (§2)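 Greenhouse test; postemergence application to plants at 1–4 leaves (2–18 cm); paddy species at 2 leaves; evaluated visually vs controls at 13–15 days; scale 0–100 (100 = complete control).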

cocklebur = assay: Test B pre-/postemergence herbicide test; assay type: in vivo, Xanthium strumarium; conditions: for Cocklebur plant response rating (0 to 100 scale) / Plant response rating, Cocklebur: 0 = no effect, 100 = complete control, preemergence; for Plant response rating, Cocklebur / Cocklebur plant response rating: visual rating; for Cocklebur plant response rating: postemergence, scale 0 (no effect) to 100 (complete control)
Procedure, shortened: (§3)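 Greenhouse pot assay with simultaneous preemergence (treated seed) and postemergence (2–18 cm seedlings) applications of surfactant-containing, non-phytotoxic solvent formulations. Response scored visually 13–15 days later on a 0–100 scale, 100 meaning complete control.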

rice [1] = assay: Test B pre-/postemergence herbicide test; assay type: in vivo, Oryza sativa; conditions: 0 = no effect, 100 = complete control, preemergence; for Rice plant response rating (0 to 100 scale): 125 g ai/ha; for Plant response rating, Rice: 500 g ai/ha, visual rating
Procedure, shortened: as §1

barnyardgrass [2] = assay: Test B pre-/postemergence herbicide test; assay type: in vivo, Echinochloa crus-galli; conditions: for Barnyardgrass plant response rating (0 to 100 scale) / Plant response rating, Barnyardgrass: 0 = no effect, 100 = complete control, preemergence; for Plant response rating, Barnyardgrass / Barnyardgrass plant response rating: visual rating; for Barnyardgrass plant response rating: postemergence, scale 0 (no effect) to 100 (complete control)
Procedure, shortened: as §3

barnyardgrass [3] = assay: Test B flooded paddy test; assay type: in vivo, Echinochloa crus-galli; conditions: 1000 g ai/ha, scale 0 to 100 (0 no effect, 100 complete control)
Procedure, shortened: as §2

morningglory = assay: Test B pre-/postemergence herbicide test; assay type: in vivo, Ipomoea coccinea; conditions: for Morningglory plant response rating (0 to 100 scale) / Plant response rating, Morningglory: 0 = no effect, 100 = complete control, preemergence; for Morningglory plant response rating: postemergence
Procedure, shortened: as §3

wild oat = assay: Test B postemergence herbicide test; assay type: in vivo, Avena fatua; conditions: postemergence
Procedure, shortened: (§4)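 Read-out: visual comparison with controls, scored 0 to 100, where 100 means complete control and 0 no effect. Formulated chemicals were applied postemergence to plants 2–18 cm tall (1- to 4-leaf), or to flooded-paddy plants at the 2-leaf stage, then held 13 to 15 days under glass.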

pigweed = assay: Test B pre-/postemergence herbicide test; assay type: in vivo, Amaranthus retroflexus; conditions: for Pigweed plant response rating (0 to 100 scale) / Plant response rating, Pigweed: 0 = no effect, 100 = complete control, preemergence; for Pigweed plant response rating: postemergence
Procedure, shortened: as §1

[4] = system: small flower umbrella sedge; assay: Test B flooded paddy test; assay type: in vivo, Cyperus difformis; conditions: 1000 g ai/ha, scale 0 to 100 (0 no effect, 100 complete control)
Procedure, shortened: as §2

lambsquarters = assay: Test B pre-/postemergence herbicide test; assay type: in vivo, Chenopodium album; conditions: for Lambsquarters plant response rating (0 to 100 scale) / Plant response rating, Lambsquarters: 0 = no effect, 100 = complete control, preemergence; for Lambsquarters plant response rating: postemergence
Procedure, shortened: as §1

rice [5] = assay: Test B flooded paddy test; assay type: in vivo, Oryza sativa; conditions: 1000 g ai/ha, scale 0 to 100 (0 no effect, 100 complete control)
Procedure, shortened: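 Paddy species grown to the 2-leaf stage under flooding; blackgrass sprayed postemergence at 2–18 cm (1- to 4-leaf stage). Plants kept in a greenhouse for 13 to 15 days, then visually rated against controls on 0 (no effect) to 100 (complete control).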

ducksalad = assay: Test B flooded paddy test; assay type: in vivo, Heteranthera limosa; conditions: 1000 g ai/ha, scale 0 to 100 (0 no effect, 100 complete control)
Procedure, shortened: as §2

large crabgrass = assay: Test B pre-/postemergence herbicide test; assay type: in vivo, Digitaria sanguinalis; conditions: for Crabgrass, Large plant response rating (0 to 100 scale) / Plant response rating, Crabgrass, Large: 0 = no effect, 100 = complete control, preemergence; for Crabgrass, Large plant response rating: postemergence
Procedure, shortened: as §1

wheat = assay: Test B postemergence herbicide test; assay type: in vivo, Triticum aestivum; design: key to Wheat plant response rating: 0 = no effect, 100 = complete control; conditions: postemergence
Procedure, shortened: as §4

Surinam grass = assay: Test B pre-/postemergence herbicide test; assay type: in vivo, Urochloa decumbens; conditions: for Surinam Grass plant response rating (0 to 100 scale) / Plant response rating, Surinam Grass: 0 = no effect, 100 = complete control, preemergence; for Surinam Grass plant response rating: postemergence
Procedure, shortened: as §1

[6] = 125 g ai/ha, 0 = no effect, 100 = complete control, preemergence
[7] = 125 g ai/ha, visual rating, scale 0 (no effect) to 100 (complete control)
[8] = 500 g ai/ha, visual rating, scale 0 (no effect) to 100 (complete control)
[9] = 500 g ai/ha, scale 0 to 100, 0 is no effect, 100 is complete control

C=CCNC(=O)c1ccc(F)c(NC(=O)c2sc(CC)nc2C(C)(C)C)c1 [Compound 237]
Velvetleaf plant response rating (0 to 100 scale) (velvetleaf; [6]): 30 | Plant response rating, Velvetleaf (velvetleaf; 500 g ai/ha, visual rating, 0 = no effect, 100 = complete control, preemergence): 60 | Velvetleaf plant response rating (velvetleaf; [7]): 30 | Velvetleaf plant response rating (velvetleaf; [8]): 50 | Corn plant response rating (0 to 100 scale) (corn; 125 g ai/ha): 0 | Plant response rating, Corn (corn; 500 g ai/ha, visual rating): 20 | Corn plant response rating (corn; [7]): 20 | Corn plant response rating (corn; [8]): 40 | Foxtail, Giant plant response rating (0 to 100 scale) (giant foxtail; 125 g ai/ha): 0 | Plant response rating, Foxtail, Giant (giant foxtail; 500 g ai/ha, visual rating): 40 | Foxtail, Giant plant response rating (giant foxtail; [7]): 10 | Foxtail, Giant plant response rating (giant foxtail; [8]): 20 | Blackgrass plant response rating (blackgrass; 125 g ai/ha): 0 | Blackgrass plant response rating (blackgrass; 500 g ai/ha): 10 | Cocklebur plant response rating (0 to 100 scale) (cocklebur; 125 g ai/ha): 0 | Plant response rating, Cocklebur (cocklebur; 500 g ai/ha): 0 | Cocklebur plant response rating (cocklebur; 125 g ai/ha): 10 | Cocklebur plant response rating (cocklebur; 500 g ai/ha): 40 | Rice plant response rating (0 to 100 scale) (rice [1]): 0 | Plant response rating, Rice (rice [1]): 30 | Barnyardgrass plant response rating (0 to 100 scale) (barnyardgrass [2]; 125 g ai/ha): 20 | Plant response rating, Barnyardgrass (barnyardgrass [2]; 500 g ai/ha): 50 | Barnyardgrass plant response rating (barnyardgrass [3]): 60 | Morningglory plant response rating (0 to 100 scale) (morningglory; 125 g ai/ha): 0 | Plant response rating, Morningglory (morningglory; 500 g ai/ha, visual rating): 20 | Morningglory plant response rating (morningglory; [7]): 20 | Morningglory plant response rating (morningglory; [8]): 60 | Oat, Wild plant response rating (wild oat; [7]): 0 | Oat, Wild plant response rating (wild oat; [8]): 20 | Pigweed plant response rating (0 to 100 scale) (pigweed; 125 g ai/ha): 20 | Plant response rating, Pigweed (pigweed; 500 g ai/ha, visual rating): 70 | Pigweed plant response rating (pigweed; [7]): 30 | Pigweed plant response rating (pigweed; [8]): 60 | Sedge, Umbrella plant response rating [4]: 40 | Lambsquarters plant response rating (0 to 100 scale) (lambsquarters; 125 g ai/ha): 70 | Plant response rating, Lambsquarters (lambsquarters; 500 g ai/ha, visual rating): 90 | Lambsquarters plant response rating (lambsquarters; [7]): 60 | Lambsquarters plant response rating (lambsquarters; [8]): 70 | Rice plant response rating (rice [5]): 50 | Ducksalad plant response rating (ducksalad): 80 | Crabgrass, Large plant response rating (0 to 100 scale) (large crabgrass; 125 g ai/ha): 30 | Plant response rating, Crabgrass, Large (large crabgrass; 500 g ai/ha, visual rating): 90 | Crabgrass, Large plant response rating (large crabgrass; [7]): 10 | Crabgrass, Large plant response rating (large crabgrass; [8]): 20 | Wheat plant response rating (wheat; [7]): 10 | Wheat plant response rating (wheat; [8]): 20 | Surinam Grass plant response rating (0 to 100 scale) (Surinam grass; 125 g ai/ha): 10 | Plant response rating, Surinam Grass (Surinam grass; 500 g ai/ha, visual rating): 30 | Surinam Grass plant response rating (Surinam grass; [7]): 20 | Surinam Grass plant response rating (Surinam grass; [8]): 20

CCc1nn(C(C)(C)C)cc1C(=O)Nc1ccc(F)c(C(=O)N(CC)CC)c1 [Compound 240]
Velvetleaf plant response rating (0 to 100 scale) (velvetleaf; [6]): 0 | Velvetleaf plant response rating (velvetleaf; [7]): 0 | Velvetleaf plant response rating (velvetleaf; [9]): 10 | Corn plant response rating (0 to 100 scale) (corn; 125 g ai/ha): 0 | Plant response rating, Corn (corn; 500 g ai/ha, visual rating): 0 | Corn plant response rating (corn; [7]): 0 | Corn plant response rating (corn; [9]): 10 | Foxtail, Giant plant response rating (0 to 100 scale) (giant foxtail; 125 g ai/ha): 0 | Plant response rating, Foxtail, Giant (giant foxtail; 500 g ai/ha, visual rating): 80 | Foxtail, Giant plant response rating (giant foxtail; [7]): 0 | Foxtail, Giant plant response rating (giant foxtail; [9]): 0 | Blackgrass plant response rating (blackgrass; 125 g ai/ha): 0 | Blackgrass plant response rating (blackgrass; 500 g ai/ha): 10 | Cocklebur plant response rating (0 to 100 scale) (cocklebur; 125 g ai/ha): 0 | Plant response rating, Cocklebur (cocklebur; 500 g ai/ha): 0 | Cocklebur plant response rating (cocklebur; 125 g ai/ha): 0 | Cocklebur plant response rating (cocklebur; 500 g ai/ha): 20 | Rice plant response rating (0 to 100 scale) (rice [1]): 0 | Plant response rating, Rice (rice [1]): 0 | Barnyardgrass plant response rating (0 to 100 scale) (barnyardgrass [2]; 125 g ai/ha): 0 | Plant response rating, Barnyardgrass (barnyardgrass [2]; 500 g ai/ha): 70 | Barnyardgrass plant response rating (barnyardgrass [2]; 125 g ai/ha): 0 | Barnyardgrass plant response rating (barnyardgrass [2]; 500 g ai/ha): 0 | Barnyardgrass plant response rating (barnyardgrass [3]): 0 | Morningglory plant response rating (0 to 100 scale) (morningglory; 125 g ai/ha): 0 | Plant response rating, Morningglory (morningglory; 500 g ai/ha, visual rating): 0 | Morningglory plant response rating (morningglory; [7]): 20 | Morningglory plant response rating (morningglory; [9]): 30 | Oat, Wild plant response rating (wild oat; [7]): 0 | Oat, Wild plant response rating (wild oat; [9]): 0 | Pigweed plant response rating (0 to 100 scale) (pigweed; 125 g ai/ha): 0 | Plant response rating, Pigweed (pigweed; 500 g ai/ha, visual rating): 100 | Pigweed plant response rating (pigweed; [7]): 0 | Pigweed plant response rating (pigweed; [9]): 50 | Sedge, Umbrella plant response rating [4]: 60 | Lambsquarters plant response rating (0 to 100 scale) (lambsquarters; 125 g ai/ha): 0 | Plant response rating, Lambsquarters (lambsquarters; 500 g ai/ha, visual rating): 80 | Lambsquarters plant response rating (lambsquarters; [7]): 20 | Lambsquarters plant response rating (lambsquarters; [9]): 50 | Rice plant response rating (rice [5]): 0 | Ducksalad plant response rating (ducksalad): 0 | Crabgrass, Large plant response rating (0 to 100 scale) (large crabgrass; 125 g ai/ha): 20 | Plant response rating, Crabgrass, Large (large crabgrass; 500 g ai/ha, visual rating): 100 | Crabgrass, Large plant response rating (large crabgrass; [7]): 0 | Crabgrass, Large plant response rating (large crabgrass; [9]): 20 | Wheat plant response rating (wheat; [7]): 0 | Wheat plant response rating (wheat; [9]): 20 | Surinam Grass plant response rating (0 to 100 scale) (Surinam grass; 125 g ai/ha): 0 | Plant response rating, Surinam Grass (Surinam grass; 500 g ai/ha, visual rating): 20 | Surinam Grass plant response rating (Surinam grass; [7]): 0 | Surinam Grass plant response rating (Surinam grass; [9]): 20
